US8609723B2 (Beijing Dingguochangsheng Biotech., Co., Ltd., priority 2008, dated 2013)

Key:
[1] = test system: chronically stressed rats; assay: Measurement of body temperature of chronically stressed rats; format: in vivo; conditions: imipramine 10 mg/kg intraperitoneally daily for 21 days, chronic stress
From the text: (§1) The rats in the normal control group were raised normally under a condition without any stimulation except for weighing body weight, measuring body temperature, and subjected to sugar test. All of other groups were subjected to stimulations of same type and same strength. During the experiment, different types of stimulations were applied in an unpredictable manner, and the same type of stimulation was enhanced each time.
(§2) The stress protocol was shown as follows: horizontally shaking at a high speed for 45 min; nipping tails (1 cm from the tail root): 1 min; depriving of water for 24 h; forbidding moving for 1.5 h; fasting for 24 h; stimulating with ice water (water temperature: 10° C.) for 5 min; electric shocking (1 mA, time course: is, 1 shock/min) the bottoms of feet for 30 min; changing cages and raising separately for 24 h; forbidding moving for 2 h; nipping tails (1 cm from the root of tail) for 1 min; depriving of water for 24 h; horizontally shaking at a high speed for 1.5 h; fasting for 24 h; nipping tails (1 cm from the tail root): 1 min; electric shocking (1 mA, time course: 1 s, 1 shock/min) the bottoms of feet for 40 min; stimulating with ice water for 5 min; changing cages and raising separately for 24 h; horizontally shaking at a high speed for 60 min; electric shocking (1 mA, time course: 1 s, 1 shock/min) the bottoms of feet for 50 min; depriving of water for 24 h; forbidding moving for 2.5 h; and 24 h social isolation.
The front part of a digital thermometer was coated with liquid paraffin, and then inserted into the anus of a rat with a depth of approximately 1 cm. The temperature was read twice accordingly and averaged.

[2] = test system: chronically stressed rats; assay: Forced swimming test of rats (chronic stress model); format: in vivo; conditions: imipramine 10 mg/kg intraperitoneally daily for 21 days
From the text: as §1
as §2, with “The chronic stress course was 20 days in total, once per day, from 9:00 AM to 2:00 PM. The” for “The”
Please see FIG. 7. 24 hours before the formal test, rats were placed into a round glass container (height: 40 cm, diameter: 18 cm) filled with water (depth: 23 cm) with a temperature of 24±1° C., and forced to conduct swim training for 15 min. […] The accumulative immobile time within the last 4 min was observed and recorded for each rat. The immobile time is intended to mean the period within which the rat stops to struggle, floats in the water and keeps immobile, or only makes a few slight movements that are necessary to keep its head floating on the surface of water.

serum corticosterone = assay: Determination of the content of serum corticosterone (chronic stress model); format: in vivo; conditions: stressed rats, imipramine 10 mg/kg daily, day after 21-day stress
From the text: as §1
as §2, with “The chronic stress course was 20 days in total, once per day, from 9:00 AM to 2:00 PM. The” for “The”
In this experiment, the content of serum corticosterone was measured by a competitive method, with its mechanism shown as follow: antigens in samples and enzyme-labeled antigens compete to bind antibodies in a solid phase. The more antigens exist in samples, the less enzyme-labeled antigens bind to the solid phase, thereby resulting in a fainter coloration.
On the next day after the end of the 21-day stress period, rats were sacrificed by decollation, and 5˜10 ml whole blood was collected. A portion of the collected whole blood was kept at room temperature for 20 min, followed by centrifugation at 1000 rpm for 10 min. Serum was then separated and stored at −80° C. The serum corticosterone detection kit was used for such detection.

[3] = test system: chronically stressed rats; assay: Sugar water test of rats (chronic stress model); format: in vivo; conditions: imipramine 10 mg/kg, table title says (%), the values are: sugar water preference
From the text: as §1
as §2, with “The chronic stress course was 20 days in total, once per day, from 9:00 AM to 2:00 PM. The” for “The”
Before this experiment, animals were trained to adapt to drink sugar water in a to quite room. Two bottles were placed simultaneously into each cage. For the first 24 h, these two bottles were both filled with 1% sugar water; and for the next 24 h, one of them was filled with 1% sugar water and the other was filled with pure water. Then after 23-hour water deprivation, the animals were tested for basic sugar water/pure water consumption. One bottle of 1% sugar water and one bottle of pure water were provided to each rat simultaneously. One hour later, the two bottles were weighed, and the total liquid consumption, sugar water consumption, pure water consumption, and the sugar water preference=sugar water consumption/total liquid consumption×100% were calculated, respectively. The experiment was performed after continuous administration of curcumin for 14 days.

[4] = background statement; cited from earlier work
male ICR mice [5] = assay: Tail suspension test in mice; format: in vivo; conditions: curcumin 10 mg/kg, Days 3 and 7 after administration, vs control group
Protocol: The tail suspension test was carried out for each of these groups on Days 3, 7 and 14 after administration, except that such experiment was not performed for the curcumin group on Day 14. Tails of the mice were taped on a special iron stand at 1 cm from the tips, whilst keeping the mice staying at a height of 50 cm from ground. Performance of the mice was observed within 6 min, and the accumulative immobile time within the last 4 min was recoded for each mouse.

[6] = test system: 5-HT, NA, DA and metabolites thereof in hippocampus; assay: Detection of monoamine and metabolites thereof in brains of mice; format: in vivo; conditions: 10 mg/kg
Protocol: Hippocampus was collected immediately on ice, weighed, put into an Eppendorf tube and kept in refrigeratory at −80° C. To each 100 mg brain tissue, 200 μl ice-cooled Solution A (0.4 mol/L HCLO4) was added. The mixture was homogenized ultrasonically in a ice bath, kept in dark at 4° C. for 60 min, and centrifuged for 20 min (12,000 rpm, 4° C.). […] The mixture was vortexed thoroughly for 10 min, kept at 4° C. in dark for 60 min, and centrifuged again for 20 min (12,000 rpm, 4° C.). The supernatant was collected and measured for the content of monoamine. The contents of 5-HT, NA, DA, 5-HIAA and DOPAC in brain tissue were determined by High Effective Liquid Phase Electrochemistry. […] The contents of monoamine and metabolites thereof in brain tissue were shown as ng/g wet tissue weight.

male ICR mice [7] = assay: Forced swimming test of mice; format: in vivo; conditions: curcumin 10 mg/kg, Days 3 and 7 after administration
Protocol: The mice were forced to swim on Days 3, 7 and 14 after administration, except that such experiment was not performed for the curcumin group on Day 14.
Twenty four hours before the formal test, the mice were placed into a round glass container (height: 25 cm, diameter: 10 cm) filled with water (depth: 10 cm) with a temperature of 24±1° C., and forced to conduct swim training for 15 min. Twenty four hours later, the mice were placed into the round glass container filled with water (depth: 10 cm) again and forced to swim for 6 min. The accumulative immobile time within the last 4 min was observed and recorded for each mouse. The immobile time is intended to mean the period within which the mouse stops to struggle, floats in the water and keeps immobile, or only makes a few slight movements that are necessary to keep its head floating on the surface of water.

S-180 sarcoma cells = assay: Antitumor experiment of tumor S-180-bearing mice; format: in vivo; conditions: 5-FU administered daily, 7 days
From the text: During the experiment, the mice were inoculated with S-180 sarcoma cells (×10^7) in armpits. […] Seven days later, the mice were sacrificed by decollation. The tumors were removed, and the mice and the tumors were weighed separately.

HCT116 cells = assay: Antitumor experiment of tumor HCT116-bearing mice; format: in vivo; conditions: 5-FU administered daily, 7 days
From the text: During the experiment, the mice were inoculated with HCT116 cells (×10^7) in armpits. […] Seven days later, the mice were sacrificed by decollation. The tumors were removed, and the mice and the tumors were weighed separately.

S-180 cells = assay: Effect on apoptosis of tumor cells, cell cycle by flow cytometry; format: in vivo, mice; conditions: sarcoma cell cycle, S-180 tumor fluid, 7 days
From the text: During the experiment, the mice were inoculated with S-180 cells (×10^7) in armpits. Seven days later, the mice were sacrificed by decollation and the tumors were removed. Tumor fluid was collected from tumors, and used for determining cell cycle by flow cytometry after ethanol fixation.

[8] = first line of group (Day 3 presumed)
[9] = second line of group (Day 7 presumed)

## CN(C)CCCN1c2ccccc2CCc2ccccc21 [Imipramine, imipramine, reference compound]
[1]
  Body temperature after stress: 36.34 ± 0.083 °C
[2]
  reduced the accumulative immobile time of the forced swimming test: 40.5%
Serum corticosterone
  serum corticosterone: 137.0 ± 15.3 nmol/L
[3]
  Sugar water volume after stress: 67.5 ± 5%
  Sugar water volume before stress: 74.8 ± 7.8%

## COc1cc(/C=C/C(=O)CC(=O)/C=C/c2ccc(O)c(OC)c2)ccc1O [Curcumin, curcumin, reference compound]
[4]
  half life: approximately 1 hour
Male ICR mice [5]
  reduction of tail suspension accumulative immobile time: no significant difference
[6]; [8]
  Hippocampus 5-HIAA: 175.7 ± 13.8 ng/g
  Hippocampus 5-HIAA/5-HT: 0.32 ± 0.03
  Hippocampus 5-HT: 541.2 ± 31.8 ng/g
  Hippocampus DOPAC: 12.4 ± 1.2 ng/g
  Hippocampus Dopamine: 19.1 ± 3.6 ng/g
  Hippocampus Noradrenaline: 245.6 ± 12.2 ng/g
[6]; [9]
  Hippocampus 5-HIAA: 179.2 ± 14.9 ng/g
  Hippocampus 5-HIAA/5-HT: 0.33 ± 0.03
  Hippocampus 5-HT: 534.6 ± 28.9 ng/g
  Hippocampus DOPAC: 11.9 ± 1.8 ng/g
  Hippocampus Dopamine: 18.8 ± 5.4 ng/g
  Hippocampus Noradrenaline: 246.6 ± 11.2 ng/g
Male ICR mice [7]
  reduction of accumulative immobile time in the forced swimming test: did not significantly reduce

## O=c1[nH]cc(F)c(=O)[nH]1 [Example 5-FU, 5-FU, reference compound]
S-180 sarcoma cells
  inhibitory rate of tumors: 55.8%
HCT116 cells
  inhibitory rate of tumors: 52.8%
S-180 cells
  APO % (apoptosis level of tumor cells): 29.1%
  G1 %: 35.1%
  G2 %: 11.7%
  S %: 53.2%
